From ChEMBL document CHEMBL1201862, “PubChem BioAssay data set” (2004)
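Assay format: 96-well plates, 48-hour exposure. GI50 marks 50% less growth.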 Activity calls are given as the source filed them. No stated cut-off is given here; in the data, active = GI50 up to about 1.1 µM and inactive = higher.

Assays:
Test in all cases: inhibition of tumour cell growth, NCI panel, 48 h
OVCAR-8 = tested on: OVCAR-8
HCC 2998 = tested on: HCC 2998
UO-31 = tested on: UO-31
TK-10 = tested on: TK-10
HOP-62 = tested on: HOP-62
786-0 = tested on: 786-0
A549 = tested on: A549
M14 = tested on: M14
COLO 205 = tested on: COLO 205
UACC-62 = tested on: UACC-62
SK-MEL-28 = tested on: SK-MEL-28
SF-268 = tested on: SF-268
OVCAR-4 = tested on: OVCAR-4
SF-295 = tested on: SF-295
EKVX = tested on: EKVX
M19-MEL = tested on: M19-MEL
LXFL 529 = tested on: LXFL 529
CAKI-1 = tested on: CAKI-1
IGROV-1 = tested on: IGROV-1
SNB-78 = tested on: SNB-78
UACC-257 = tested on: UACC-257
SK-MEL-5 = tested on: SK-MEL-5
HOP-18 = tested on: HOP-18
DMS-273 = tested on: DMS-273
SW-620 = tested on: SW-620
KM-20L2 = tested on: KM-20L2
CCRF-CEM = tested on: CCRF-CEM
ACHN = tested on: ACHN
HCT-116 = tested on: HCT-116
HCT-15 = tested on: HCT-15
XF498 = tested on: XF498
NCI-H23 = tested on: NCI-H23
A498 = tested on: A498
SK-MEL-2 = tested on: SK-MEL-2
SN12C = tested on: SN12C
SNB-19 = tested on: SNB-19
LOX IMVI = tested on: LOX IMVI
KM12 = tested on: KM12
SK-OV-3 = tested on: SK-OV-3
HL-60 = tested on: HL-60
Malme-3M = tested on: Malme-3M
DLD-1 = tested on: DLD-1
NCI-H460 = tested on: NCI-H460
U-251 = tested on: U-251
NCI-H522 = tested on: NCI-H522
SF-539 = tested on: SF-539
SR = tested on: SR
SNB-75 = tested on: SNB-75
DMS-114 = tested on: DMS-114
K562 = tested on: K562
MOLT-4 = tested on: MOLT-4
HOP-92 = tested on: HOP-92
OVCAR-5 = tested on: OVCAR-5
OVCAR-3 = tested on: OVCAR-3
HT-29 = tested on: HT-29

For `CCC1(N=[N+]=[N-])C(=O)c2ccccc2N(c2ccccc2)C1=O` (stereo not given), the GI50 (OVCAR-8) was > 100 µM (inactive), the GI50 (HCC 2998) was > 100 µM (inactive) and the GI50 (UO-31) was > 100 µM (inactive). For the same compound, the GI50 (TK-10) was > 100 µM (inactive), the GI50 (HOP-62) was > 100 µM (inactive) and the GI50 (786-0) was > 100 µM (inactive). The GI50 (A549) was > 100 µM (inactive), the GI50 (M14) was > 100 µM (inactive) and the GI50 (COLO 205) was > 100 µM (inactive). For the same compound, the GI50 (UACC-62) was > 100 µM (inactive), the GI50 (SK-MEL-28) was > 100 µM (inactive) and the GI50 (SF-268) was > 100 µM (inactive). For the same compound, the GI50 (OVCAR-4) was > 100 µM (inactive), the GI50 (SF-295) was > 100 µM (inactive) and the GI50 (EKVX) was > 100 µM (inactive). The GI50 (M19-MEL) was > 100 µM (inactive), the GI50 (LXFL 529) was > 100 µM (inactive) and the GI50 (CAKI-1) was > 100 µM (inactive). For the same compound, the GI50 (IGROV-1) was > 100 µM (inactive), the GI50 (SNB-78) was > 100 µM (inactive) and the GI50 (UACC-257) was > 100 µM (inactive). For the same compound, the GI50 (SK-MEL-5) was > 100 µM (inactive), the GI50 (HOP-18) was > 100 µM (inactive) and the GI50 (DMS-273) was > 100 µM (inactive). The GI50 (SW-620) was > 100 µM (inactive), the GI50 (KM-20L2) was > 100 µM (inactive) and the GI50 (CCRF-CEM) was > 100 µM (inactive). For the same compound, the GI50 (ACHN) was > 100 µM (inactive), the GI50 (HCT-116) was > 100 µM (inactive) and the GI50 (HCT-15) was over 100 µM. The GI50 (XF498) was > 100 µM (inactive), the GI50 (NCI-H23) was > 100 µM (inactive) and the GI50 (A498) was > 100 µM (inactive). The GI50 (SK-MEL-2) was > 100 µM (inactive), the GI50 (SN12C) was > 100 µM (inactive) and the GI50 (SNB-19) was > 100 µM (inactive). The GI50 (LOX IMVI) was > 100 µM (inactive), the GI50 (KM12) was > 100 µM (inactive) and the GI50 (SK-OV-3) was > 100 µM (inactive). For the same compound, the GI50 (HL-60) was > 100 µM (inactive), the GI50 (Malme-3M) was > 100 µM (inactive) and the GI50 (DLD-1) was > 100 µM (inactive). The GI50 (NCI-H460) was > 100 µM (inactive), the GI50 (U-251) was > 100 µM (inactive) and the GI50 (NCI-H522) was > 100 µM (inactive). The GI50 (SF-539) was > 100 µM (inactive), the GI50 (SR) was > 100 µM (inactive) and the GI50 (SNB-75) was > 100 µM (inactive). The GI50 (DMS-114) was > 100 µM (inactive), the GI50 (K562) was > 100 µM (inactive) and the GI50 (MOLT-4) was > 100 µM (inactive). The GI50 (HOP-92) was > 100 µM (inactive), the GI50 (OVCAR-5) was > 100 µM (inactive) and the GI50 (OVCAR-3) was > 100 µM (inactive). For the same compound, the GI50 (HT-29) was > 100 µM (inactive).
